Measurements taken from patent US20230068010A1, “FORMULATION OF INSECTICIDAL MIXTURES COMPRISING GLYCOL ETHER SOLVENTS” (Bayer Aktiengesellschaft, priority 2019, published 2023).

Assay: Cuticle penetration test
Type: in vitro ADME, apple tree
Source text: This test measures the penetration of active ingredients through enzymatically isolated cuticles of apple tree leaves.
Leaves that have been cut off apple trees in the developed state and isolated by the method described in Schönherr and Riederer (Schönherr, J., Riederer, M. (1986)) are used. Only the cuticles of the top sides of the leaves that are free of stomata and hair are used further.
For membrane transport studies, the cuticular membranes thus obtained are placed into stainless steel diffusion cells (=transport chambers). For this purpose, the cuticles are placed with tweezers onto the middle of the silicone grease-smeared edges of the diffusion cells and sealed with a likewise greased ring. The arrangement is chosen such that the morphological outside of the cuticles is directed outward, i.e. toward the air, while the original inside faces the inside of the diffusion cell. The diffusion cells are filled with water or with a mixture of water and solvent and buffered to the physiologically relevant pH of 5.5. The medium in the diffusion cells is supposed to simulate the apoplast, i.e. the natural absorption medium within the leaf. This method is of good suitability for systemic and mechanistic studies with the aim of understanding the effect of the formulations, adjuvants and solvents on penetration of the crop protection compositions.
The active ingredient concentration corresponds to the field application rate customary in practice. For preparation of the spray liquor the corresponding ingredients in the given amounts are given into tap water and homogenized by mixing.
After the spray liquors have been applied, the water is allowed to evaporate in each case, then the chambers are inverted and they are placed into thermostated tanks, wherein air at a defined air humidity and temperature is blown onto the outside of the cuticles in each case. The penetration that sets in therefore takes place at a relative air humidity of 56% and a set temperature of 25° C. At regular intervals, an autosampler is used to take samples and the content of penetrated active ingredient is measured by means of HPLC. The numbers reported are average values from 5 to 10 individual measurements in each case.

O=C1C=C(N(Cc2ccc(Cl)nc2)CC(F)F)CO1 [Flupyradifurone]
Penetration after 24 h (entry 1: spray solution 0.1 g/L Compd I-2 + 0.5 g/L flupyradifurone, no additives, 25° C., 56% r.h.): 5.1%
Penetration after 24 h (entry 1: spray solution 0.1 g/L Compd I-2 + 0.5 g/L flupyradifurone, no additives, 25° C., 56% r.h., listed as flupyradifurone): barely any, if any, cuticle penetration
Penetration after 24 h (entry 2: 0.1 g/L Compd I-2 + 0.5 g/L flupyradifurone + DAHP 1.6 g/L, 25° C., 56% r.h.): 29.2%
Penetration after 24 h (entry 3: 0.1 g/L Compd I-2 + 0.5 g/L flupyradifurone + Antarox B/848 1.3 g/L, 25° C., 56% r.h.): 73%
Penetration after 24 h (entry 4: 0.1 g/L Compd I-2 + 0.5 g/L flupyradifurone + Antarox B/848 1.3 + DAHP 1.6 g/L, 25° C., 56% r.h.): 82.8%
Penetration after 24 h (entry 5: as entry 4 + 1.8 g/L Propylenglycolmonomethylether (B) + 1.8 g/L Propylenglycol (C)): 87.2%
Penetration after 24 h (entry 6: as entry 4 + 1.8 g/L Propylenglycolmonomethylether (B) + 1.8 g/L Dipropylenglycol (D)): 100%
Penetration after 24 h (entry 7: as entry 4 + 2.1 g/L Dipropylenglycolmonomethylether (A) + 1.4 g/L Propylenglycolmonomethylether (B)): 100%
Penetration after 24 h (entry 8: as entry 4 + 2.5 g/L Dipropylenglycolmonomethylether (A) + 1.2 g/L Propylenglycol (C)): 95%
